Experimental data reported in patent US20240343694A1, “PYRIMIDINE DERIVATIVE, METHOD FOR PREPARING SAME, AND PHARMACEUTICAL COMPOSITION FOR PREVENTING OR TREATING CANCER COMPRISING SAME AS ACTIVE INGREDIENT” (KOREA RESERARCH INSTITUTE OF CHEMICAL TECHNOLOGY, priority 2021, published 2024).

What was measured:
EGFR del19 = EGFR del19 (Homo sapiens (Human), UniProt P00533, DEL746-750); assay: HTRF inhibitory activity against EGFR mutant enzyme (EGFR del19); format: biochemical; conditions: recombinant enzyme, 37° C. for 2 hours
Method in brief: (§1)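 IC50 was derived from 7 concentrations by HTRF: Eu-anti-pTyr and streptavidin-XL665 for 1 h at room temperature, with the 615/665 nm ratio read. The kinase reaction ran 2 h at 37 °C in Tris pH 7.5 buffer with ATP (stated 50 mM) and biotinylated peptide (0.5 mM). Enzyme was preincubated with compound before substrate was added.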

EGFR A763_Y764insFHEA = EGFR A763_Y764insFHEA (Homo sapiens (Human), UniProt P00533, INS763FHEA); assay: HTRF inhibitory activity against EGFR mutant enzyme (EGFR A763_Y764insFHEA); format: biochemical; conditions: recombinant enzyme, 37° C. for 2 hours
Method in brief: as §1

HER2 A775_G776insYVMA = HER2 A775_G776insYVMA (Homo sapiens (Human), UniProt P04626, INS775YVMA); assay: HTRF inhibitory activity against HER2 mutant enzyme; format: biochemical; conditions: recombinant enzyme, 37° C. for 2 hours
Method in brief: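 Recombinant HER2 A775_G776insYVMA preincubated with compound, then […] and biotinylated peptide ([…]) added; 2 h at 37 °C in Tris-HCl pH 7.5 buffer with MgCl2, DTT. HTRF detection (Eu anti-phosphotyrosine/streptavidin-XL665); IC50 from 7 concentrations.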

[1] = tested on: Ba/F3 EGFR D770_N771insSVD; assay: Growth inhibition of Ba/F3 EGFR mutant cells (CellTiter-Glo); format: cell-based; conditions: Ba/F3 EGFR-D770-N771ins_SVD, 72 hours
Protocol: (§2) The activity of the compounds of the present invention against Ba/F3 EGFR V769_D770insASV and Ba/F3 EGFR D770_N771insSVD mutant cell lines was measured using the CellTiter-Glo system purchased from Promega as follows. CellTiter-Glo assay is a method to measure cell viability by monitoring ATP present in cells. Ba/F3 EGFR V769_D770insASV and Ba/F3 EGFR D770_N771insSVD mutant cell lines were purchased from Crown Biosciences. Ba/F3 EGFR V769_D770insASV and Ba/F3 EGFR D770_N771insSVD mutant cell lines were cultured in RPMI containing 10% FBS and 1% penicillin-streptomycin with 1 μg/mL of puromycin in a 5% CO2 incubator at 37° C.
(§3) The analysis of the ability of the compounds to inhibit the growth of EGFR mutant cells was performed according to the following method. 1,000 cells/100 μL were seeded in a 96-well cell culture plate, and 24 hours thereafter, the compounds represented by Formula 1 were treated with 0 μM, 0.01 μM, 0.03 μM, 0.1 μM, 0.3 μM, 1 μM, 3 μM, and 10 μM. After incubating for 72 hours, the plate treated with the compounds were left at room temperature for 30 minutes, 100 μL of a reagent was further added thereto, and then shaken at room temperature for 10 minutes. Finally, using equipment, the ratio of […] was measured to confirm the cell growth inhibition ability of the compounds. The measured values at 8 compound concentrations were analyzed using the Prism program (version 5.01, Graphpad Software, Inc.), and the IC50 (μM) values, which are measures of the compounds' inhibitory ability, were calculated.

[2] = tested on: Ba/F3 EGFR V769_D770insASV; assay: as above; format: cell-based; conditions: 72 hours
Protocol: as §2, §3

[3] = tested on: Ba/F3 HER2 A775_G776insYVMA; assay: Growth inhibition of Ba/F3 HER2 mutant cells (CellTiter-Glo); format: cell-based; conditions: Mus musculus, BaF3, 72 hours
Protocol: as §2, with “HER2 A775_G776insYVMA” for “EGFR V769_D770insASV”, “HER2 G776delinsVC” for “EGFR D770_N771insSVD”, “a” for “a 5%”
as §3, with “HER2” for “EGFR”, “reacting” for “incubating”, “was” for “was further”

Ba/F3 HER2 G776delinsVC = assay: as above; format: cell-based; conditions: Mus musculus, BaF3, 72 hours
Protocol: as §2, with “HER2 A775_G776insYVMA” for “EGFR V769_D770insASV”, “HER2 G776delinsVC” for “EGFR D770_N771insSVD”, “a” for “a 5%”
as §3, with “HER2” for “EGFR”, “reacting” for “incubating”, “was” for “was further”

EGFR A763_Y764insFHEA, sequence (P00533 other isoform, or with tags, fused parts or gaps del 1-694/ins FHEA behind 763 limits assumed): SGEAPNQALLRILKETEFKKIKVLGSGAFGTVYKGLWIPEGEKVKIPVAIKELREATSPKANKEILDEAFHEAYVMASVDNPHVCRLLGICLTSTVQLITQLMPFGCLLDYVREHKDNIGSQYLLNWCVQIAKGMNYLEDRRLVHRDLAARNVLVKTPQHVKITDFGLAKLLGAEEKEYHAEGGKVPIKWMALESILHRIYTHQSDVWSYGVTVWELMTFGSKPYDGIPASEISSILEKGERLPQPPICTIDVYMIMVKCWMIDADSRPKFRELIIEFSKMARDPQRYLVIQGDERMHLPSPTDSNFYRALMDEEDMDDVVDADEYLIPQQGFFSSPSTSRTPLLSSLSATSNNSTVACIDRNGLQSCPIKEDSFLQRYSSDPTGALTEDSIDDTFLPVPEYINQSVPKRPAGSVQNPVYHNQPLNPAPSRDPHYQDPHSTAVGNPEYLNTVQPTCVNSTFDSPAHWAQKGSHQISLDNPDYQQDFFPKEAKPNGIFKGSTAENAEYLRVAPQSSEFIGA
HER2 A775_G776insYVMA, sequence (P04626 other isoform, or with tags, fused parts or gaps del 1-675/ins YVMA behind 775 limits assumed): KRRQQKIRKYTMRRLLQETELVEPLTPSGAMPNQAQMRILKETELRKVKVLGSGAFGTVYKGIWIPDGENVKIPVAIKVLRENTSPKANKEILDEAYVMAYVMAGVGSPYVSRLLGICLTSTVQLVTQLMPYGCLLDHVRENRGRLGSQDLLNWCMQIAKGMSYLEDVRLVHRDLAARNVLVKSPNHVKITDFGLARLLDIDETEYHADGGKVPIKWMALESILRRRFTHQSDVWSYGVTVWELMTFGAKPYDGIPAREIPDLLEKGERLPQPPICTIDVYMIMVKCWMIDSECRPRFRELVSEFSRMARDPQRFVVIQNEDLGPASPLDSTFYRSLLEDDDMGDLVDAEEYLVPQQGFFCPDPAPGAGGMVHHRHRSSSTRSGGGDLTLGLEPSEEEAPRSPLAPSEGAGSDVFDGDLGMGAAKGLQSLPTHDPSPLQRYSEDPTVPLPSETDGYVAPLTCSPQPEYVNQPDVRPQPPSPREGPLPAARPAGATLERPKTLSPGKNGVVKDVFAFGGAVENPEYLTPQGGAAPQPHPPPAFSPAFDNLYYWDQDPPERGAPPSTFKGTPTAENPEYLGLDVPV
EGFR del19, sequence (P00533 other isoform, or with tags, fused parts or gaps del 1-668/del 746-750 limits assumed): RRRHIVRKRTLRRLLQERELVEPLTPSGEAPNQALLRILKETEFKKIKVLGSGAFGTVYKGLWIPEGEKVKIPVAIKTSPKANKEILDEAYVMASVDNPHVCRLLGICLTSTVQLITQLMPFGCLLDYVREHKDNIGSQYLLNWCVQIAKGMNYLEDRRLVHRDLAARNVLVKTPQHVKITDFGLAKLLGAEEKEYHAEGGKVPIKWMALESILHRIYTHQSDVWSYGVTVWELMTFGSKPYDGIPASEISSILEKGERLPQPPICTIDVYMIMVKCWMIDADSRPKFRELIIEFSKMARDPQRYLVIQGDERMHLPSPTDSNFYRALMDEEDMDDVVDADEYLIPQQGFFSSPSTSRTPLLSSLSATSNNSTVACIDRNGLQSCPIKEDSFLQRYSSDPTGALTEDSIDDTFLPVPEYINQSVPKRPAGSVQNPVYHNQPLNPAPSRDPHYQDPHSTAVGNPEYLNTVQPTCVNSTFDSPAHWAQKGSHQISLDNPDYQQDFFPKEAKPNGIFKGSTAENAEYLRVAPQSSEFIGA

Row | IC50 (EGFR del19) [nM] | IC50 (EGFR A763_Y764insFHEA) [nM] | IC50 (HER2 A775_G776insYVMA) [nM] | IC50 [1] [nM] | IC50 [2] [nM] | IC50 [3] [nM] | IC50 (Ba/F3 HER2 G776delinsVC) [nM] | SMILES
1 | < 1 | < 1 | 1 | 10 to 30 | 10 to 30 | 10 to 30 |  | C=CC(=O)Nc1cc(Nc2ncc(C(=O)OC(C)C)c(Nc3cccc4c3N(S(C)(=O)=O)CC4)n2)c(OC)cc1N(C)CCN(C)C [Example 61, isopropyl 2-((5-acrylamido-4-((2-(dimethylamino)ethyl)(methyl)amino)-2-methoxyphenyl)amino)-4-((1-(methylsulfonyl)indolin-7-yl)amino)pyrimidin-5-carboxylate]
2 | < 1 | < 1 | 15 | 10 to 30 | 10 to 30 | 10 to 30 |  | C=CC(=O)Nc1cc(Nc2ncc(C(F)(F)F)c(Nc3cccc4c3N(S(C)(=O)=O)CC4)n2)c(OC)cc1N(C)CCN(C)C [Example 65, N-(2-((2-(dimethylamino)ethyl)(methyl)amino)-4-methoxy-5-((4-((1-(methylsulfonyl)indolin-7-yl)amino)-5-(trifluoromethyl)pyrimidin-2-yl)amino)phenyl)acrylamide]
3 | < 1 | < 1 | 5 | 10 to 30 | 10 to 30 | 10 to 30 |  | C=C(F)C(=O)Nc1cc(Nc2ncc(Cl)c(Nc3cccc4c3N(S(C)(=O)=O)CC4)n2)c(OC)cc1N(C)CCN(C)C [Example 66, N-(5-((5-chloro-4-((1-(methylsulfonyl)indolin-7-yl)amino)pyrimidin-2-yl)amino)-2-((2-(dimethylamino)ethyl)(methyl)amino)-4-methoxyphenyl)-2-fluoroacrylamide]
4 |  |  | < 1 | 10 to 30 | 10 to 30 | 10 to 30 |  | C=CC(=O)Nc1cc(Nc2ncc(Cl)c(Nc3cccc4c3N(S(C)(=O)=O)CC4)n2)c(OC)cc1OCCN(C)C [Example 63, N-(5-((5-chloro-4-((1-(methylsulfonyl)indolin-7-yl)amino)pyrimidin-2-yl)amino)-2-(2-(dimethylamino)ethoxy)-4-methoxyphenyl)acrylamide]
5 | < 1 | 2 | 37 |  | 10 to 30 | > 100 | 10 to 30 | C=CC(=O)Nc1cc(Nc2ncc(Cl)c(Nc3ccccc3NS(=O)(=O)CC)n2)c(OC)cc1N(C)CCN(C)C [Example 4, N-(5-((5-chloro-4-((2-(ethylsulfonamido)phenyl)amino)pyrimidin-2-yl)amino)-2-((2-(dimethylamino)ethyl)(methyl)amino)-4-methoxyphenyl)acrylamide]
6 |  |  | 10 | 10 to 30 | 10 to 30 | 10 to 30 |  | C=CC(=O)Nc1cc(Nc2ncc(Cl)c(Nc3cccc4c3N(S(C)(=O)=O)CCC4)n2)c(OC)cc1N(C)CCN1CCOCC1 [Example 53, N-(5-((5-chloro-4-((1-(methylsulfonyl)-1,2,3,4-tetrahydroquinolin-8-yl)amino)pyrimidin-2-yl)amino)-4-methoxy-2-(methyl(2-morpholinoethyl)amino)phenyl)acrylamide]
7 |  |  | 3 | 10 to 30 | 10 to 30 | 10 to 30 |  | C=CC(=O)Nc1cc(Nc2ncc(C#N)c(Nc3cccc4c3N(S(C)(=O)=O)CC4)n2)c(OC)cc1N(C)CCN(C)C [Example 62, N-(5-((5-cyano-4-((1-(methylsulfonyl)indolin-7-yl)amino)pyrimidin-2-yl)amino)-2-((2-(dimethylamino)ethyl)(methyl)amino)-4-methoxyphenyl)acrylamide]
8 | 1 | 5 |  | 30 to 50 | 10 to 30 | 50 to 100 | < 10 | C=CC(=O)Nc1cc(Nc2ncc(F)c(Nc3cccc4c3N(C(C)=O)CC4)n2)c(OC)cc1N(C)CCN(C)C [Example 101, N-(5-((4-((1-acetylindolin-7-yl)amino)-5-fluoropyrimidin-2-yl)amino)-2-((2-(dimethylamino)ethyl)(methyl)amino)-4-methoxyphenyl)acrylamide]
9 | < 1 | < 1 | 1 | < 10 | < 10 |  |  | C=CC(=O)Nc1cc(Nc2ncc(Cl)c(Nc3ccc(C)cc3N(C)S(C)(=O)=O)n2)c(OC)cc1N(C)CCN1CCCC1 [Example 76, N-(5-((5-chloro-4-((4-methyl-2-(N-methylmethylsulfonamido)phenyl)amino)pyrimidin-2-yl)amino)-4-methoxy-2-(methyl(2-(pyrrolidin-1-yl)ethyl)amino)phenyl)acrylamide]
10 | < 1 | < 1 | < 1 | < 10 | < 10 |  |  | C=CC(=O)Nc1cc(Nc2ncc(Cl)c(Nc3cccc4c3N(S(C)(=O)=O)CC4)n2)c(OC)cc1N(C)CCN1CCCC1 [Example 74, N-(5-((5-chloro-4-((1-(methylsulfonyl)indolin-7-yl)amino)pyrimidin-2-yl)amino)-4-methoxy-2-(methyl(2-(pyrrolidin-1-yl)ethyl)amino)phenyl)acrylamide]
11 | < 1 | < 1 | 3 | 30 to 50 | 30 to 50 | 10 to 30 |  | C=CC(=O)Nc1cc(Nc2ncc(Cl)c(Nc3cccc4c3N(S(C)(=O)=O)CC4)n2)c(OC)cc1N(C)CCN1CCOCC1 [Example 64, N-(5-((5-chloro-4-((1-(methylsulfonyl)indolin-7-yl)amino)pyrimidin-2-yl)amino)-4-methoxy-2-(methyl(2-morpholinoethyl)amino)phenyl)acrylamide]
12 | < 1 | < 1 | 1 | < 10 | < 10 |  |  | C=CC(=O)Nc1cc(Nc2ncc(Cl)c(Nc3cccc4c3N(S(C)(=O)=O)CC4)n2)c(OC)cc1N(C)CCN1CCC1 [Example 80, N-(2-((2-(azetidin-1-yl)ethyl)(methyl)amino)-5-((5-chloro-4-((1-(methylsulfonyl)indolin-7-yl)amino)pyrimidin-2-yl)amino)-4-methoxyphenyl)acrylamide]
13 | < 1 | < 1 | 2 | < 10 | < 10 |  |  | C=CC(=O)Nc1cc(Nc2ncc(Cl)c(Nc3ccc(C)cc3N(C)S(C)(=O)=O)n2)c(OC)cc1N(C)CCN1CCC1 [Example 82, N-(2-((2-(azetidin-1-yl)ethyl)(methyl)amino)-5-((5-chloro-4-((4-methyl-2-(N-methylmethylsulfonamido)phenyl)amino)pyrimidin-2-yl)amino)-4-methoxyphenyl)acrylamide]
